Experiments:
Type in all cases: physicochemical
[1] = Measurement of water content (coulometric titration method); details: as prepared, sample 5 mg
Excerpt: For evaluation of purity of Compound 1 or the substance in the form of a salt, the area percentage method based on HPLC is convenient. For evaluation of water content of Compound 1 or the substance in the form of a salt, the volumetric titration method, the coulometric titration method described in Japanese Pharmacopoeia, General Test Methods, “Water Determination”, the loss on drying test and the like can be used. When sample weight is small, the coulometric titration method can be preferably chosen.

[2] = Thermal stability test (sealed glass vial, dark place, 60° C.); details: for Appearance / Water content / Purity: 60° C., dark, sealed vial; for Purity: HPLC
Method: Thermal stability of Compound 1 or the substance in the form of a salt can be evaluated by, for example, sealing a sample in a glass vial or the like, storing the vial under a severe temperature condition such as 40 to 80° C. in a dark place for a given period of time, and then observing or measuring appearance, purity, water content and the like of Compound 1 or the substance in the form of a salt. Change of purity before and after storage especially serves as an important index of thermal stability. For example, the evaluation is preferably performed under a storage condition of 60° C. • High performance liquid chromatography apparatus: LC-10A Series (Shimadzu) or Agilent 1100 series (Agilent Technologies) • Solution concentration: 500 μg/ml • Injection: 10 μl • Detector: Ultraviolet absorptiometer (measurement wavelength: 245 nm) • Column: XBridge Shield RP18 5 μm, internal diameter: 4.6 mm, length: 15 cm (Waters) • Column temperature: Constant temperature around 40° C. • Mobile phase A: 20 mmol/l Sodium phosphate buffer (pH 7.0) • Mobile phase B: Acetonitrile • Liquid feeding program: A concentration gradient was formed by changing the mixing ratio of the mobile phase A and the mobile phase B as shown in Table 1. • Flow rate: 1.0 ml/minute • Water content measurement apparatus: AQ-7 (Hiranuma Sangyo) • Sample amount: 5 mg • Anolyte: Aqualyte RS (Sigma-Aldrich) • Catholyte: Aqualyte CN (Sigma-Aldrich) The monohydrochloride obtained by the method described in Example 3, the monohydrobromide obtained by the method described in Example 4, and the dihydrochloride as a control were weighed in a glass vial in an amount of 40 mg each, and the glass vial was sealed. Each sample was stored in a dark place at 60° C. for 2 to 4 weeks, and after the storage, appearance was evaluated by visual inspection. Further, purity was measured under the conditions of Test Example 7, and water content was measured under the conditions of Test Example 8.

[3] = Hygroscopicity Test 1 (open glass weighing dish, dark place, 25° C. and 84% RH); details: for Appearance / Water content / Purity: 25° C. and 84% RH, dark, open; for Purity: HPLC
Method: Hygroscopicity of Compound 1 or the substance in the form of a salt can be evaluated by putting a sample on a glass weighing dish, storing the dish in a dark place for a given period of time in an open state at a temperature of 25 to 40° C. under a humidification condition of about 75 to 94% relative humidity, and then observing or measuring appearance, purity, water content and the like of Compound 1 or the substance in the form of a salt. Increase of water content before and after storage especially serves as an important hygroscopic index. For example, the evaluation is preferably performed after storage conditions of 25° C. and 84% RH. • High performance liquid chromatography apparatus: LC-10A Series (Shimadzu) or Agilent 1100 series (Agilent Technologies) • Solution concentration: 500 μg/ml • Injection: 10 μl • Detector: Ultraviolet absorptiometer (measurement wavelength: 245 nm) • Column: XBridge Shield RP18 5 μm, internal diameter: 4.6 mm, length: 15 cm (Waters) • Column temperature: Constant temperature around 40° C. • Mobile phase A: 20 mmol/l Sodium phosphate buffer (pH 7.0) • Mobile phase B: Acetonitrile • Liquid feeding program: A concentration gradient was formed by changing the mixing ratio of the mobile phase A and the mobile phase B as shown in Table 1. • Flow rate: 1.0 ml/minute • Water content measurement apparatus: AQ-7 (Hiranuma Sangyo) • Sample amount: 5 mg • Anolyte: Aqualyte RS (Sigma-Aldrich) • Catholyte: Aqualyte CN (Sigma-Aldrich) The monohydrochloride obtained by the method described in Example 3, the monohydrobromide obtained by the method described in Example 4, and the dihydrochloride as a control were weighed on a glass weighing dish in an amount of 40 mg each, and each sample was stored in a dark place at 25° C. and 84% RH for 2 to 4 weeks. After the storage, appearance was evaluated by visual inspection. Further, purity was measured under the conditions of Test Example 7, and water content was measured under the conditions of Test Example 8.

[4] = Hygroscopicity Test 2 (25° C. and 84% RH; free base, salts and salt mixtures); details: for Appearance / Water content / Purity: 25° C. and 84% RH, dark; for Purity: HPLC
Method: Hygroscopicity of Compound 1 or the substance in the form of a salt can be evaluated by putting a sample on a glass weighing dish, storing the dish in a dark place for a given period of time in an open state at a temperature of 25 to 40° C. under a humidification condition of about 75 to 94% relative humidity, and then observing or measuring appearance, purity, water content and the like of Compound 1 or the substance in the form of a salt. Increase of water content before and after storage especially serves as an important hygroscopic index. For example, the evaluation is preferably performed after storage conditions of 25° C. and 84% RH. • High performance liquid chromatography apparatus: LC-10A Series (Shimadzu) or Agilent 1100 series (Agilent Technologies) • Solution concentration: 500 μg/ml • Injection: 10 μl • Detector: Ultraviolet absorptiometer (measurement wavelength: 245 nm) • Column: XBridge Shield RP18 5 μm, internal diameter: 4.6 mm, length: 15 cm (Waters) • Column temperature: Constant temperature around 40° C. • Mobile phase A: 20 mmol/l Sodium phosphate buffer (pH 7.0) • Mobile phase B: Acetonitrile • Liquid feeding program: A concentration gradient was formed by changing the mixing ratio of the mobile phase A and the mobile phase B as shown in Table 1. • Flow rate: 1.0 ml/minute • Water content measurement apparatus: AQ-7 (Hiranuma Sangyo) • Sample amount: 5 mg • Anolyte: Aqualyte RS (Sigma-Aldrich) • Catholyte: Aqualyte CN (Sigma-Aldrich) Compound 1 obtained by a method similar to the method described in Example 1 (two kinds of lots), the monohydrochloride obtained by the method described in Example 3, the dihydrochloride, and mixtures of the monohydrochloride and the dihydrochloride at ratios of 9:1, 8:2, 6:4, 4:6 and 2:8 were weighed on a glass weighing dish in an amount of each 40 mg, and each sample was stored in a dark place at 25° C. and 84% RH for 2 to 4 weeks. After the storage, appearance was evaluated by visual inspection. Further, purity was measured under the conditions of Test Example 7, and water content was measured under the conditions of Test Example 8.

[5] = after storage at 60° C. for 4 weeks
[6] = after storage at 25° C. and 84% RH for 4 weeks

Compound: CN[C@H]1CCN(S(=O)(=O)c2cccc3cncc(Cl)c23)C1.Cl [Monohydrochloride, (S)-1-(4-chloro-5-isoquinolinesulfonyl)-3-(methylamino)pyrrolidine monohydrochloride]
- Water content [1]: 0.20%
- Appearance ([2]; after 2 weeks): White
- Water content ([2]; after 2 weeks): 0.06%
- Appearance ([2]; after 4 weeks): White
- Water content ([2]; after 4 weeks): 0.08%
- Appearance ([2]; before storage): White
- Water content ([2]; before storage): 0.20%
- Purity ([2]; after 2 weeks): 99.9%
- Purity ([2]; after 4 weeks): 99.7%
- Purity ([2]; before storage): 99.4%
- Thermal stability compared with the dihydrochloride ([2]; Test Example 9, 60° C.): more satisfactory thermal stability
- Change of appearance [2, 5]: no change of appearance
- Degradation of purity [2, 5]: no degradation of purity
- Appearance ([3]; after 2 weeks): White
- Water content ([3]; after 2 weeks): 0.23%
- Appearance ([3]; after 4 weeks): White
- Water content ([3]; after 4 weeks): 0.26%
- Appearance ([3]; before storage): White
- Water content ([3]; before storage): 0.20%
- Purity ([3]; after 2 weeks): 99.8%
- Purity ([3]; after 4 weeks): 99.6%
- Purity ([3]; before storage): 99.4%
- Hygroscopicity compared with the dihydrochloride ([3]; Test Example 10, 25° C. and 84% RH): remarkably lower hygroscopicity
- Change of appearance [3, 6]: no change of appearance
- Degradation of purity [3, 6]: no degradation of purity
- Increase of water content [3, 6]: no substantial increase of water content
- Appearance ([4]; after 2 weeks): White
- Water content ([4]; after 2 weeks): 0.1%
- Appearance ([4]; before storage): White
- Water content ([4]; before storage): 0.0%
- Purity ([4]; after 2 weeks): 100.0%
- Purity ([4]; before storage): 100.0%
- Hygroscopicity compared with Compound 1 (free base) and mixtures ([4]; Test Example 11, 25° C. and 84% RH): hygroscopicity lower than any of Compound 1 (free base) and mixtures of the monohydrochloride and the dihydrochloride

Source: patent US8664243B2, “Sulfonamide compound and crystal thereof” (Asahi Kasei Pharma Corporation, priority 2007, dated 2014)
